What was measured:
in vitro [1] = settings: human, microsomes
in vitro [2] = settings: rat, microsomes
Rattus norvegicus [3] = species on record: Rattus norvegicus; settings: in vivo
in vivo [4] = settings: rat, po
in vivo [5] = settings: rat
in vivo [6] = settings: rat; remark: listed apart in the source
in vivo [7] = settings: rat; remark: listed apart in the source
in vivo [8] = settings: rat, brain and plasma, ip
physchem = settings: polyethylene glycol
Mus musculus [9] = species on record: Mus musculus; assay: animal or person; settings: NSA, ip, read-out: INH
Mus musculus [10] = species on record: Mus musculus; assay: animal or person; settings: NSA, ip, read-out: INH; remark: listed apart in the source
Rattus norvegicus [11] = species on record: Rattus norvegicus; assay: animal or person; settings: Sprague-Dawley, po, read-out: INH

| Compound | microsomal CLint (in vitro [1]) | microsomal CLint (in vitro [2]) | clearance (Rattus norvegicus [3]) | bioavailability (in vivo [4]) | half-life (in vivo [5]) | Cmax (in vivo [6]) | Tmax (in vivo [7]) | Kp (in vivo [8]) | solubility (physchem) | inhibition in vivo at 3 mg/kg (Mus musculus [9]) | inhibition in vivo at 1 mg/kg (Mus musculus [10]) | inhibition in vivo at 10 mg/kg (Rattus norvegicus [11]) |
| --- | --- | --- | --- | --- | --- | --- | --- | --- | --- | --- | --- | --- |
| O=C(NCc1cccc(Cl)c1)c1ccc2c(c1)N=C(N1CCCCC1)c1ccccc1S2 | 265 µL/min/mg | 644 µL/min/mg |  |  |  |  |  |  |  |  |  |  |
| O=C(NCc1cccc(Cl)c1)c1ccc2c(c1)N=C(N1CCC(F)(F)CC1)c1ccccc1S2 | 40 µL/min/mg | 66 µL/min/mg |  |  |  |  |  |  |  |  |  |  |
| O=C(NN1CCCCC1)c1ccc2c(c1)N=C(C1CCCCC1)c1ccccc1S2 | 84 µL/min/mg | 846 µL/min/mg | 7.36 mL/min/kg | 13% | 2.1 h | 651 nM | 0.5 h | 4 |  |  |  |  |
| CCCCNC(=O)c1ccc2c(c1)N=C(c1ccc(Cl)cc1)c1ccccc1S2 | 24 µL/min/mg | 89 µL/min/mg | 0.51 mL/min/kg | 25% | 5.8 h | 677 nM | 6 h |  | > 3.7 mg/mL | 82% | 71% | 69% |
| CCCCNC(=O)c1ccc2c(c1)N=C(c1ccc(Cl)c(Cl)c1)c1ccccc1S2 |  | 32 µL/min/mg |  |  |  |  |  |  | > 14 mg/mL | 58% |  |  |
| CC(C)CNC(=O)c1ccc2c(c1)N=C(c1ccc(Cl)s1)c1ccccc1S2 |  |  |  |  |  |  |  |  |  | 73% |  | 54% |
| CCCC1=Nc2cc(C(=O)NC3CCN(C(=O)OCC)CC3)ccc2Sc2ccccc21 | 279 µL/min/mg | 539 µL/min/mg |  |  |  |  |  |  |  |  |  |  |
| CCCCNC(=O)c1ccc2c(c1)N=C(c1ccc(F)c(Cl)c1)c1ccccc1S2 | 16 µL/min/mg | 58 µL/min/mg |  |  |  |  |  |  | > 13 mg/mL | 94% | 70% | 59% |
| CN/C(=N\S(=O)(=O)c1ccc(Cl)cc1)N1C[C@H](c2ccccc2)C(c2ccc(Cl)cc2)=N1 (racemic) [IBIPINABANT] |  |  |  |  |  |  |  |  |  | 82% | 51% |  |
| Cc1c(C(=O)NN2CCCCC2)nn(-c2ccc(Cl)cc2Cl)c1-c1ccc(Cl)cc1 [RIMONABANT] | 41 µL/min/mg | 159 µL/min/mg |  |  |  |  |  |  |  |  | 70% | 55% |
